# Tests used:
# Experiment in all cases: relative viability (nuclei count vs DMSO), 5 days (fraction); higher = more cells survive
# Avagacestat = compound: NC(=O)[C@@H](CCC(F)(F)F)N(Cc1ccc(-c2ncon2)cc1F)S(=O)(=O)c1ccc(Cl)cc1 [Avagacestat]
# In short: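 Following overnight incubation at 37 °C, lung cancer cell lines in 1536-well plates were pinned with five library-drug doses (not always all listed) in √10 steps on vehicle-anchored plates. The cells then spent 5 days without medium change before a combined fix, permeabilisation and Hoechst stain, 4× imaging and MetaXpress nuclear counts. Viability is the treated-to-vehicle ratio of nuclei, taken as the median across plates. Only plates with control CV below 25% and at least one doubling passed.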
# Avagacestat + Trametinib = compound: NC(=O)[C@@H](CCC(F)(F)F)N(Cc1ccc(-c2ncon2)cc1F)S(=O)(=O)c1ccc(Cl)cc1 [Avagacestat] + CC(=O)Nc1cccc(-n2c(=O)n(C3CC3)c(=O)c3c(Nc4ccc(I)cc4F)n(C)c(=O)c(C)c32)c1 [Trametinib] (partner 0.02 µM)
# In short: (§1)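 Nuclei were stained with Hoechst during a one-step fixation (final 0.05% Triton X-100, 1% formaldehyde, 1 ug/ml Hoechst) carried out 5 days after dosing, then counted on 4× images. The cells, lung cancer lines in 1536-well plates, had been dosed by pin tool the day after seeding with one drug alone or a fixed anchor-drug dose plus five library-drug doses (not always all listed) in √10 steps. Relative viability is the nuclei count in treated wells divided by that in vehicle wells, and each value is the median of duplicate plates.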
# [1] = compound: NC(=O)[C@@H](CCC(F)(F)F)N(Cc1ccc(-c2ncon2)cc1F)S(=O)(=O)c1ccc(Cl)cc1 [Avagacestat] + CC(=O)c1c(C)c2cnc(Nc3ccc(N4CCNCC4)cn3)nc2n(C2CCCC2)c1=O [Palbociclib] (partner 0.5 µM)
# In short: as §1
# Avagacestat + Luminespib = compound: NC(=O)[C@@H](CCC(F)(F)F)N(Cc1ccc(-c2ncon2)cc1F)S(=O)(=O)c1ccc(Cl)cc1 [Avagacestat] + CCNC(=O)c1noc(-c2cc(C(C)C)c(O)cc2O)c1-c1ccc(CN2CCOCC2)cc1 [Luminespib] (partner 0.01 µM)
# In short: as §1
# Avagacestat + Foretinib = compound: NC(=O)[C@@H](CCC(F)(F)F)N(Cc1ccc(-c2ncon2)cc1F)S(=O)(=O)c1ccc(Cl)cc1 [Avagacestat] + COc1cc2c(Oc3ccc(NC(=O)C4(C(=O)Nc5ccc(F)cc5)CC4)cc3F)ccnc2cc1OCCCN1CCOCC1 [Foretinib] (partner 0.25 µM)
# In short: as §1
# Avagacestat + OSI-027 = compound: NC(=O)[C@@H](CCC(F)(F)F)N(Cc1ccc(-c2ncon2)cc1F)S(=O)(=O)c1ccc(Cl)cc1 [Avagacestat] + COc1cccc2cc(-c3nc([C@H]4CC[C@H](C(=O)O)CC4)n4ncnc(N)c34)[nH]c12 [OSI-027] (partner 0.5 µM)
# In short: as §1
# Avagacestat + Tozasertib = compound: NC(=O)[C@@H](CCC(F)(F)F)N(Cc1ccc(-c2ncon2)cc1F)S(=O)(=O)c1ccc(Cl)cc1 [Avagacestat] + Cc1cc(Nc2cc(N3CCN(C)CC3)nc(Sc3ccc(NC(=O)C4CC4)cc3)n2)n[nH]1 [Tozasertib] (partner 0.1 µM)
# In short: as §1
# Avagacestat + Dasatinib = compound: NC(=O)[C@@H](CCC(F)(F)F)N(Cc1ccc(-c2ncon2)cc1F)S(=O)(=O)c1ccc(Cl)cc1 [Avagacestat] + Cc1nc(Nc2ncc(C(=O)Nc3c(C)cccc3Cl)s2)cc(N2CCN(CCO)CC2)n1 [Dasatinib] (partner 0.075 µM)
# In short: as §1
# Avagacestat + Phenformin = compound: NC(=O)[C@@H](CCC(F)(F)F)N(Cc1ccc(-c2ncon2)cc1F)S(=O)(=O)c1ccc(Cl)cc1 [Avagacestat] + N=C(N)NC(=N)NCCc1ccccc1 [Phenformin] (partner 250 µM)
# In short: as §1
# Avagacestat + AZD7762 = compound: NC(=O)[C@@H](CCC(F)(F)F)N(Cc1ccc(-c2ncon2)cc1F)S(=O)(=O)c1ccc(Cl)cc1 [Avagacestat] + NC(=O)Nc1cc(-c2cccc(F)c2)sc1C(=O)N[C@H]1CCCNC1 [AZD7762] (partner 0.2 µM)
# In short: as §1
# Avagacestat + Pemetrexed = compound: NC(=O)[C@@H](CCC(F)(F)F)N(Cc1ccc(-c2ncon2)cc1F)S(=O)(=O)c1ccc(Cl)cc1 [Avagacestat] + Nc1nc2[nH]cc(CCc3ccc(C(=O)N[C@@H](CCC(=O)O)C(=O)O)cc3)c2c(=O)[nH]1 [Pemetrexed] (partner 0.2 µM)
# In short: as §1
# Avagacestat + Decitabine = compound: NC(=O)[C@@H](CCC(F)(F)F)N(Cc1ccc(-c2ncon2)cc1F)S(=O)(=O)c1ccc(Cl)cc1 [Avagacestat] + Nc1ncn([C@H]2C[C@H](O)[C@@H](CO)O2)c(=O)n1 [Decitabine] (partner 2 µM)
# In short: as §1
# Avagacestat + Vorinostat = compound: NC(=O)[C@@H](CCC(F)(F)F)N(Cc1ccc(-c2ncon2)cc1F)S(=O)(=O)c1ccc(Cl)cc1 [Avagacestat] + O=C(CCCCCCC(=O)Nc1ccccc1)NO [Vorinostat] (partner 1 µM)
# In short: as §1
# Avagacestat + Olaparib = compound: NC(=O)[C@@H](CCC(F)(F)F)N(Cc1ccc(-c2ncon2)cc1F)S(=O)(=O)c1ccc(Cl)cc1 [Avagacestat] + O=C(c1cc(Cc2n[nH]c(=O)c3ccccc23)ccc1F)N1CCN(C(=O)C2CC2)CC1 [Olaparib] (partner 8 µM)
# In short: as §1
cell line,measurement,setting,value
SW 900,relative viability,Avagacestat; 0.08 µM,1.07
same,relative viability,Avagacestat; 0.253 µM,1.04
same,relative viability,Avagacestat; 0.8 µM,1.06
same,relative viability,Avagacestat; 2.53 µM,0.967
same,relative viability,Avagacestat; 8 µM,0.979
same,relative viability,Avagacestat + Trametinib; first compound 0.08 µM,1.08
same,relative viability,Avagacestat + Trametinib; first compound 0.253 µM,0.82
same,relative viability,Avagacestat + Trametinib; first compound 0.8 µM,0.872
same,relative viability,Avagacestat + Trametinib; first compound 2.53 µM,0.763
same,relative viability,Avagacestat + Trametinib; first compound 8 µM,0.713
same,relative viability,[1]; first compound 0.08 µM,0.627
same,relative viability,[1]; first compound 0.253 µM,0.618
same,relative viability,[1]; first compound 0.8 µM,0.645
same,relative viability,[1]; first compound 2.53 µM,0.453
same,relative viability,[1]; first compound 8 µM,0.505
same,relative viability,Avagacestat + Luminespib; first compound 0.08 µM,0.176
same,relative viability,Avagacestat + Luminespib; first compound 0.253 µM,0.168
same,relative viability,Avagacestat + Luminespib; first compound 0.8 µM,0.173
same,relative viability,Avagacestat + Luminespib; first compound 2.53 µM,0.153
same,relative viability,Avagacestat + Luminespib; first compound 8 µM,0.177
same,relative viability,Avagacestat + Foretinib; first compound 0.08 µM,1.38
same,relative viability,Avagacestat + Foretinib; first compound 0.253 µM,1.32
same,relative viability,Avagacestat + Foretinib; first compound 0.8 µM,0.967
same,relative viability,Avagacestat + Foretinib; first compound 2.53 µM,0.612
same,relative viability,Avagacestat + Foretinib; first compound 8 µM,1.2
same,relative viability,Avagacestat + OSI-027; first compound 0.08 µM,0.756
same,relative viability,Avagacestat + OSI-027; first compound 0.253 µM,0.731
same,relative viability,Avagacestat + OSI-027; first compound 0.8 µM,0.581
same,relative viability,Avagacestat + OSI-027; first compound 2.53 µM,0.573
same,relative viability,Avagacestat + OSI-027; first compound 8 µM,0.653
same,relative viability,Avagacestat + Tozasertib; first compound 0.08 µM,0.726
same,relative viability,Avagacestat + Tozasertib; first compound 0.253 µM,0.637
same,relative viability,Avagacestat + Tozasertib; first compound 0.8 µM,0.578
same,relative viability,Avagacestat + Tozasertib; first compound 2.53 µM,0.487
same,relative viability,Avagacestat + Tozasertib; first compound 8 µM,0.353
same,relative viability,Avagacestat + Dasatinib; first compound 0.08 µM,0.821
same,relative viability,Avagacestat + Dasatinib; first compound 0.253 µM,0.599
same,relative viability,Avagacestat + Dasatinib; first compound 0.8 µM,0.547
same,relative viability,Avagacestat + Dasatinib; first compound 2.53 µM,0.848
same,relative viability,Avagacestat + Dasatinib; first compound 8 µM,0.558
same,relative viability,Avagacestat + Phenformin; first compound 0.08 µM,0.781
same,relative viability,Avagacestat + Phenformin; first compound 0.253 µM,0.641
same,relative viability,Avagacestat + Phenformin; first compound 0.8 µM,0.543
same,relative viability,Avagacestat + Phenformin; first compound 2.53 µM,0.571
same,relative viability,Avagacestat + Phenformin; first compound 8 µM,0.627
same,relative viability,Avagacestat + AZD7762; first compound 0.08 µM,0.847
same,relative viability,Avagacestat + AZD7762; first compound 0.253 µM,0.807
same,relative viability,Avagacestat + AZD7762; first compound 0.8 µM,0.606
same,relative viability,Avagacestat + AZD7762; first compound 2.53 µM,0.571
same,relative viability,Avagacestat + AZD7762; first compound 8 µM,0.466
same,relative viability,Avagacestat + Pemetrexed; first compound 0.08 µM,0.485
same,relative viability,Avagacestat + Pemetrexed; first compound 0.253 µM,0.507
same,relative viability,Avagacestat + Pemetrexed; first compound 0.8 µM,0.474
same,relative viability,Avagacestat + Pemetrexed; first compound 2.53 µM,0.486
same,relative viability,Avagacestat + Pemetrexed; first compound 8 µM,0.482
same,relative viability,Avagacestat + Decitabine; first compound 0.08 µM,0.376
same,relative viability,Avagacestat + Decitabine; first compound 0.253 µM,0.401
same,relative viability,Avagacestat + Decitabine; first compound 0.8 µM,0.422
same,relative viability,Avagacestat + Decitabine; first compound 2.53 µM,0.464
same,relative viability,Avagacestat + Decitabine; first compound 8 µM,0.41
same,relative viability,Avagacestat + Vorinostat; first compound 0.08 µM,0.502
same,relative viability,Avagacestat + Vorinostat; first compound 0.253 µM,0.828
same,relative viability,Avagacestat + Vorinostat; first compound 0.8 µM,0.554
same,relative viability,Avagacestat + Vorinostat; first compound 2.53 µM,0.535
same,relative viability,Avagacestat + Vorinostat; first compound 8 µM,0.641
same,relative viability,Avagacestat + Olaparib; first compound 0.08 µM,1.04
same,relative viability,Avagacestat + Olaparib; first compound 0.253 µM,0.96
same,relative viability,Avagacestat + Olaparib; first compound 0.8 µM,0.982
same,relative viability,Avagacestat + Olaparib; first compound 2.53 µM,0.634
same,relative viability,Avagacestat + Olaparib; first compound 8 µM,0.896

# From the supplement of paper PMC10307832
